Source: patent US8946215B2, “Hydroxy-substituted imidazo[1,2-a]pyridinecarboxamides and their use” (Bayer Pharma Aktiengesellschaft, priority 2012, dated 2015)
Structures can show the parent of a compound that is named as a salt.

Molecular target: T1, recombinant guanylate cyclase reporter cell line (Rattus norvegicus, UniProt P19686+P20595)
T1 construct: expressed in transfected cells
T1 sequence (P20595 1-619): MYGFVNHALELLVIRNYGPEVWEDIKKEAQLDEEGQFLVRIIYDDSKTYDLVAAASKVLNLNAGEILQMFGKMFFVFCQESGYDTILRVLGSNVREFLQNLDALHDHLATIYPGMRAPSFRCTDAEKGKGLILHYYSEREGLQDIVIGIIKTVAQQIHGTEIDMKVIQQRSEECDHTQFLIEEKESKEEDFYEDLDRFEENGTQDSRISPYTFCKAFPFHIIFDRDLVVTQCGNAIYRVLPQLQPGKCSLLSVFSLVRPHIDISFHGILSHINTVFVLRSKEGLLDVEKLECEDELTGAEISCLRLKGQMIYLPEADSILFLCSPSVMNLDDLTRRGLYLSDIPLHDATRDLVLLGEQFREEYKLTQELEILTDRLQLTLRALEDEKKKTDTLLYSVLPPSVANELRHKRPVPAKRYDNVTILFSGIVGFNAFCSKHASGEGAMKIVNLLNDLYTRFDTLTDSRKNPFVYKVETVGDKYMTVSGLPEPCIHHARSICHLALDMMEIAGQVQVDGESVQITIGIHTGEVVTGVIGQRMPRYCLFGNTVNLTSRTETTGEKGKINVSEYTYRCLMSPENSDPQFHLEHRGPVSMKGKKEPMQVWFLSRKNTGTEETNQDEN
T1 sequence (P19686 1-690): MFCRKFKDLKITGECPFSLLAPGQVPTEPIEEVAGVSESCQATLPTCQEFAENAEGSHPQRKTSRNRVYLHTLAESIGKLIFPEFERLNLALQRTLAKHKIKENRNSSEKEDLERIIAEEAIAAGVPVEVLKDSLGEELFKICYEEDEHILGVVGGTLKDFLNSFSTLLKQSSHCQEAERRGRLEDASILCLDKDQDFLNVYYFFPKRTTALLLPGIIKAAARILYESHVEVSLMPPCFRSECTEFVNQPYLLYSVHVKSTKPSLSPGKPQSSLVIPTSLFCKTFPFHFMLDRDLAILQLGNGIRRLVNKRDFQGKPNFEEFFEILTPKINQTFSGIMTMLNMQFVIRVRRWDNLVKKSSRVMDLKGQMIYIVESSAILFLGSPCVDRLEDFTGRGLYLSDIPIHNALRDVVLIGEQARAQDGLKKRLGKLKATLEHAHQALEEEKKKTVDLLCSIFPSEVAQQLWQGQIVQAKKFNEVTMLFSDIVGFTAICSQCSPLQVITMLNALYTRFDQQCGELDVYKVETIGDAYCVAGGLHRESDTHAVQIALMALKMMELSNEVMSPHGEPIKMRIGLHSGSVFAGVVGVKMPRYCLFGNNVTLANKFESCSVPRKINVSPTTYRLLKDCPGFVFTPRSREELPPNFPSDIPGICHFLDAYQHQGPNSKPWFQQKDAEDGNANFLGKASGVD
Assay: Action on recombinant guanylate cyclase reporter cell line
Format: cell-based
Details: in some cases mean values obtained from individual determinations
Experimental: B-2. Action on Recombinant Guanylate Cyclase Reporter Cell Line
The cellular action of the compounds according to the invention is determined on a recombinant guanylate cyclase reporter cell line, as described in F. Wunder et al., Anal. Biochem. 339, 104-112 (2005).
Representative values (MEC=minimal effective concentration) for the compounds according to the invention are shown in the following table (in some cases as mean values obtained from individual determinations): […]

Row | MEC (minimal effective concentration) [µM] | Compound
1 | 0.1 | C#Cc1cc(OCc2c(F)cccc2F)c2nc(C)c(C(=O)N[C@@H](CO)CCCC)n2c1 [Example 126, 8-[(2,6-Difluorobenzyl)oxy]-6-ethynyl-N-[(2R)-hydroxyhexan-2-yl]-2-methylimidazo[1,2-a]-pyridine-3-carboxamide]
2 | 0.3 | Cc1nc2c(OCc3c(F)cccc3F)cccn2c1C(=O)NCCC(C)(C)O [Example 153, 8-[(2,6-difluorobenzyl)oxy]-N-(3-hydroxy-3-methylbutyl)-2-methylimidazo[1,2-a]pyridine-3-carboxamide]
3 | 1.0 | CSCC[C@@H](CO)NC(=O)c1c(C)nc2c(OCC3CCCCC3)cccn12 [Example 90, 8-(cyclohexylmethoxy)-N-[(2S)-1-hydroxy-4-(methylsulphanyl)butan-2-yl]-2-methylimidazo[1,2-a]pyridine-3-carboxamide]
4 | 0.1 | CCCC[C@H](CO)NC(=O)c1c(C)nc2c(OCc3c(F)cccc3Cl)cccn12 [Example 3]
5 | 0.1 | CCCC[C@H](CO)NC(=O)c1c(C)nc2c(OCc3cccc(F)c3)cccn12 [Example 6]
6 | 0.03 | Cc1nc2c(OCc3c(F)cccc3F)cccn2c1C(=O)NC(CO)CCC(F)(F)F (single isomer, unassigned; ent-8) [Example 122, ent-8-[(2,6-Difluorobenzyl)oxy]-2-methyl-N-(5,5,5-trifluoro-1-hydroxypentan-2-yl)imidazo[1,2-a]-pyridine-3-carboxamide]
7 | 0.1 | Cc1nc2c(OCc3c(F)cccc3F)cccn2c1C(=O)N[C@@H]1CCC[C@H]1O [Example 36]
8 | 0.1 | Cc1nc2c(OCc3c(F)cccc3F)cccn2c1C(=O)NC(CO)CCC(F)(F)F (racemic) [Example 101, rac-8-[(2,6-difluorobenzyl)oxy]-2-methyl-N-(5,5,5-trifluoro-1-hydroxypentan-2-yl)-imidazo[1,2-a]pyridine-3-carboxamide trifluoroacetate]
9 | 0.65 | CC[C@H](CO)NC(=O)c1c(C)nc2c(OCc3cccc(Cl)c3Cl)cccn12 [Example 45, 8-[(2,3-dichlorobenzyl)oxy]-N-[(2R)-1-hydroxybutan-2-yl]-2-methylimidazo[1,2-a]-pyridine-3-carboxamide]
10 | 0.1 | Cc1nc2c(OCc3c(F)cccc3F)cccn2c1C(=O)NC(CCC(F)(F)F)C(C)(C)O (racemic) [Example 149, rac-8-[(2,6-difluorobenzyl)oxy]-2-methyl-N-(6,6,6-trifluoro-2-hydroxy-2-methylhexan-3-yl)imidazo[1,2-a]pyridine-3-carboxamide]
11 | 0.3 | Cc1nc2c(OCc3c(F)cccc3F)cccn2c1C(=O)N[C@@H]1CCC[C@@H]1O [Example 37]
12 | 0.3 | Cc1nc2c(OCc3c(F)cccc3F)cccn2c1C(=O)NC(CO)C(F)(F)F (racemic) [Example 110, rac-8-[(2,6-Difluorobenzyl)oxy]-2-methyl-N-(1,1,1-trifluoro-3-hydroxypropan-2-yl)imidazo[1,2-a]pyridine-3-carboxamide]
13 | 0.03 | Cc1cc(OCc2c(F)ccc(F)c2F)c2nc(C)c(C(=O)NC(CCC(F)(F)C(F)(F)F)C(C)(C)O)n2c1 (single isomer, unassigned; ent-2) [Example 198, ent-2,6-dimethyl-N-(6,6,7,7,7-pentafluoro-2-hydroxy-2-methylheptan-3-yl)-8-[(2,3,6-trifluorobenzyl)oxy]imidazo[1,2-a]pyridine-3-carboxamide]
14 | 0.3 | Cc1nc2c(OCc3c(F)cccc3F)cccn2c1C(=O)NC1(CO)CCC1 [Example 125, 8-[(2,6-Difluorobenzyl)oxy]-N-[1-(hydroxymethyl)cyclobutyl]-2-methylimidazo[1,2-a]pyridine-3-carboxamide]
15 | 3.0 | CCCC[C@H](CO)NC(=O)c1c(C)nc2c(OCc3c(F)cccc3F)cc(N3CCOCC3)cn12 [Example 63, 8-[(2,6-difluorobenzyl)oxy]-N-[(2R)-1-hydroxyhexan-2-yl]-2-methyl-6-(morpholin-4-yl)imidazo[1,2-a]pyridine-3-carboxamide]
16 | 0.1 | CCC[C@H](CO)NC(=O)c1c(C)nc2c(OCc3c(F)cccc3F)cccn12 [Example 18]
17 | 0.3 | Cc1nc2c(OCc3c(F)cccc3F)cccn2c1C(=O)NC(CO)c1cccnc1 (racemic) [Example 124, rac-8-[(2,6-Difluorobenzyl)oxy]-N-[2-hydroxy-1-(pyridin-3-yl)ethyl]-2-methylimidazo[1,2-a]-pyridine-3-carboxamide]
18 | 3.0 | CC[C@H](CO)NC(=O)c1c(C)nc2c(OCc3ccccc3)cccn12 [Example 17, 8-(Benzyloxy)-N-[(2R)-1-hydroxybutan-2-yl]-2-methylimidazo[1,2-a]pyridine-3-carboxamide]
19 | 0.3 | Cc1nc2c(OCc3ncccc3F)cccn2c1C(=O)NC(CCCC(F)(F)F)C(C)(C)O (single isomer, unassigned; ent-8) [Example 183, ent-8-[(3-fluoropyridin-2-yl)methoxy]-2-methyl-N-(7,7,7-trifluoro-2-hydroxy-2-methylheptan-3-yl)imidazo[1,2-a]pyridine-3-carboxamide (enantiomer B)]
20 | 0.03 | Cc1nc2c(OCc3c(F)cccc3F)cccn2c1C(=O)NC(CO)CC(F)(F)F (racemic) [Example 100, rac-8-[(2,6-Difluorobenzyl)oxy]-2-methyl-N-(4,4,4-trifluoro-hydroxybutan-2-yl)imidazo[1,2-a]-pyridine-3-carboxamide trifluoroacetate]
21 | 0.2 | Cc1nc2c(OCC3CCCCC3)cccn2c1C(=O)NCCCCO [Example 74, 8-(cyclohexylmethoxy)-N-(4-hydroxybutyl)-2-methylimidazo[1,2-a]pyridine-3-carboxamide]
22 | 1 | Cc1cc(OCc2c(F)cncc2F)c2nc(C)c(C(=O)NC(CCCC(F)(F)F)C(C)(C)O)n2c1 (single isomer, unassigned; ent-8) [Example 189, ent-8-[(3,5-difluoropyridine-4-yl)methoxy]-2,6-dimethyl-N-(7,7,7-trifluoro-2-hydroxy-2-methylheptan-3-yl)imidazo[1,2-a]pyridine-3-carboxamide (enantiomer A)]
23 | 0.03 | CCCC[C@H](CO)NC(=O)c1c(C)nc2c(OCc3c(F)cccc3F)cc(F)cn12 [Example 132, 8-[(2,6-difluorobenzyl)oxy]-6-fluoro-N-[(2R)-1-hydroxyhexan-2-yl]-2-methylimidazo[1,2-a]pyridine-3-carboxamide]
24 | 0.3 | Cc1nc2c(OCc3c(F)cccc3F)cccn2c1C(=O)NC(CO)c1ccccn1 (racemic) [Example 119, rac-8-[(2,6-difluorobenzyl)oxy]-N-[2-hydroxy-1-(pyridin-2-yl)ethyl]-2-methylimidazo[1,2-a]-pyridine-3-carboxamide]
25 | 0.3 | Cc1nc2c(OCc3c(F)cccc3F)cccn2c1C(=O)N[C@@H](CO)C(C)(C)C [Example 35]
26 | 0.1 | Cc1nc2c(OCc3c(F)cccc3F)cccn2c1C(=O)N[C@@H](CO)CC[C@@H](O)C(F)(F)F [Example 135, 8-[(2,6-difluorobenzyl)oxy]-2-methyl-N-[(2R,5R)-6,6,6-trifluoro-1,5-dihydroxyhexan-2-yl]imidazo[1,2-a]pyridine-3-carboxamide trifluoroacetate (1:1)]
